In this test the target is T1, AMSH (Associated Molecule with the SH3 domain of STAM) (Homo sapiens, UniProt O95630).
T1 sequence (O95630 219-424): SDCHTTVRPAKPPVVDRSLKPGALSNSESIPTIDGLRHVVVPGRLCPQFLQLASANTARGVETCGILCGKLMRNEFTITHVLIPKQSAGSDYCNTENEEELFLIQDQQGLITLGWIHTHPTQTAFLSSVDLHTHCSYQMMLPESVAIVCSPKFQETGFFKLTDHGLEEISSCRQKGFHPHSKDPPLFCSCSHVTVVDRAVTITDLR
Description: FRET deubiquitinase assay with Lys63-linked diubiquitin probe. The test is classed as biochemical.

As a reminder, the IC50 is the concentration at which inhibition is half-maximal. Lower therefore signals higher potency. As for `CCN1C(=O)C=CC1=O` [NEM, N-ethylmaleimide], 16.2 ± 3.1 µM corresponded to half-maximal inhibition (IC50).

Values taken from article PMC3784021 (Analytical biochemistry, 2013).
